From PubChem BioAssay AID328 (DTP/NCI, 2004)
“And” between values parts separate entries of the source, which are not always exact repeats. Equal values may be shown once. Inconclusive results and toxic doses are left out.

Test system: BDF1 mice, P388 leukemia ip, median survival T/C
Assay: NCI In Vivo Anticancer Drug Screen. Data for tumor model P388 Leukemia (intraperitoneal) in B6D2F1 (BDF1) mice
Details: endpoint: median survival time, higher = longer survival
Summary of the method: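 Mice carrying the transplantable tumour receive compound or vehicle. Survival is followed in each arm, and the treated measure is divided by the vehicle measure.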

[1] = dose: 100.0 mg/kg/injection, schedule: Q01DX009 (ip), vehicle: Klucel (hydroxypropylcellulose) (HPC)
[2] = dose: 200.0 mg/kg/injection, schedule: Q01DX009 (ip), vehicle: Klucel (hydroxypropylcellulose) (HPC)
[3] = dose: 400.0 mg/kg/injection, schedule: Q01DX009 (ip), vehicle: Klucel (hydroxypropylcellulose) (HPC)
[4] = dose: 50.0 mg/kg/injection, schedule: Q01DX005 (ip), vehicle: saline with Tween-80
[5] = dose: 100.0 mg/kg/injection, schedule: Q01DX005 (ip), vehicle: saline with Tween-80
[6] = dose: 200.0 mg/kg/injection, schedule: Q01DX005 (ip), vehicle: saline with Tween-80
[7] = dose: 100.0 mg/kg/injection, schedule: Q04DX003 (ip), vehicle: Klucel (hydroxypropylcellulose) (HPC)
[8] = dose: 200.0 mg/kg/injection, schedule: Q04DX003 (ip), vehicle: Klucel (hydroxypropylcellulose) (HPC)
[9] = dose: 100.0 mg/kg/injection, schedule: Q04DX003 (ip), vehicle: saline with Tween-80
[10] = dose: 200.0 mg/kg/injection, schedule: Q04DX003 (ip), vehicle: saline with Tween-80
[11] = dose: 100.0 mg/kg/injection, schedule: Q04DX003 (ip), vehicle: saline
[12] = dose: 25.0 mg/kg/injection, schedule: Q01DX009 (ip), vehicle: saline
[13] = dose: 50.0 mg/kg/injection, schedule: Q01DX009 (ip), vehicle: saline
[14] = dose: 100.0 mg/kg/injection, schedule: Q01DX009 (ip), vehicle: saline
[15] = dose: 12.5 mg/kg/injection, schedule: Q01DX009 (ip), vehicle: saline with Tween-80
[16] = dose: 25.0 mg/kg/injection, schedule: Q01DX009 (ip), vehicle: saline with Tween-80
[17] = dose: 6.25 mg/kg/injection, schedule: Q04DX003 (ip), vehicle: saline
[18] = dose: 12.5 mg/kg/injection, schedule: Q04DX003 (ip), vehicle: saline
[19] = dose: 100.0 mg/kg/injection, schedule: Q01DX009 (ip), vehicle: saline with Tween-80
[20] = dose: 200.0 mg/kg/injection, schedule: Q01DX009 (ip), vehicle: saline with Tween-80
[21] = dose: 50.0 mg/kg/injection, schedule: Q01DX009 (ip), vehicle: saline with Tween-80
[22] = dose: 25.0 mg/kg/injection, schedule: Q01DX001 (ip), vehicle: saline with Tween-80

Cn1cnc2c1c(=O)[nH]c(=O)n2C
T/C [1]: 109 % of control
T/C [2]: 104 % of control
T/C [3]: 97 % of control

O=C1c2ccccc2C(=O)c2c(O)c(NCCCN3CCOCC3)cc(O)c21
T/C [4]: 99 % of control
T/C [5]: 94 % of control
T/C [6]: 94 % of control

CN=NNCc1ccccc1
T/C (dose: 12.5 mg/kg/injection, schedule: Q01DX005 (ip), vehicle: saline): 117 % of control
T/C (dose: 25.0 mg/kg/injection, schedule: Q01DX005 (ip), vehicle: saline): 86 % of control

CC(=O)/C(=C\c1ccc(Cl)c(Cl)c1)C(=O)c1ccccc1
T/C (dose: 100.0 mg/kg/injection, schedule: Q04DX003 (ip), vehicle: other): 113 % of control
T/C (dose: 200.0 mg/kg/injection, schedule: Q04DX003 (ip), vehicle: other): 113 % of control

COc1ccc(-n2nc3c(c2-c2cccnc2)CCc2ccccc2-3)cc1
T/C [7]: 103 % of control
T/C [8]: 109 % of control
T/C (dose: 400.0 mg/kg/injection, schedule: Q04DX003 (ip), vehicle: Klucel (hydroxypropylcellulose) (HPC)): 105 % of control

C[n+]1c(-c2ccc(Cl)c(Cl)c2)c2cc(N)ccc2c2ccccc21
T/C (dose: 0.78 mg/kg/injection, schedule: Q01DX009 (ip), vehicle: water): 107 % of control
T/C (dose: 0.78 mg/kg/injection, schedule: Q04DX003 (ip), vehicle: water): 100 % of control
T/C (dose: 1.56 mg/kg/injection, schedule: Q01DX009 (ip), vehicle: water): 114 % of control
T/C (dose: 1.56 mg/kg/injection, schedule: Q04DX003 (ip), vehicle: water): 100 % of control
T/C (dose: 3.12 mg/kg/injection, schedule: Q04DX003 (ip), vehicle: water): 106 % of control
T/C (dose: 6.25 mg/kg/injection, schedule: Q04DX003 (ip), vehicle: water): 106 % of control
T/C (dose: 12.5 mg/kg/injection, schedule: Q01DX009 (ip), vehicle: water): 109 % of control

N#Cc1ccc(C(=O)CC(O)(C(F)(F)F)C(F)(F)F)cc1
T/C (dose: 66.0 mg/kg/injection, schedule: Q04DX003 (ip), vehicle: saline with Tween-80): 104 % of control
T/C [9]: 95 % of control
T/C (dose: 150.0 mg/kg/injection, schedule: Q04DX003 (ip), vehicle: saline with Tween-80): 104 % of control
T/C [10]: 100 % of control
T/C (dose: 400.0 mg/kg/injection, schedule: Q04DX003 (ip), vehicle: saline with Tween-80): 95 % of control

C[n+]1c(-c2ccccc2)c2ccccc2c2ccccc21
T/C (dose: 0.75 mg/kg/injection, schedule: Q01DX009 (ip), vehicle: water): 102 % of control
T/C (dose: 1.5 mg/kg/injection, schedule: Q01DX009 (ip), vehicle: water): 105 % of control
T/C (dose: 1.5 mg/kg/injection, schedule: Q04DX003 (ip), vehicle: water): 111 % of control
T/C (dose: 3.0 mg/kg/injection, schedule: Q01DX009 (ip), vehicle: water): 105 % of control
T/C (dose: 3.0 mg/kg/injection, schedule: Q04DX003 (ip), vehicle: water): 111 % of control
T/C (dose: 6.0 mg/kg/injection, schedule: Q04DX003 (ip), vehicle: water): 93 % of control

CCN(CCO)c1ccc(N)cc1C
T/C (dose: 1.56 mg/kg/injection, schedule: Q01DX009 (ip), vehicle: saline): 100 % of control
T/C (dose: 3.13 mg/kg/injection, schedule: Q01DX009 (ip), vehicle: saline): 100 % of control
T/C (dose: 6.25 mg/kg/injection, schedule: Q01DX009 (ip), vehicle: saline): 90 % of control

CC(C)N(C(C)C)C(C)CCNc1c2ccccc2nc2cc(Cl)ccc12 (stereo not given)
T/C (dose: 6.0 mg/kg/injection, schedule: Q01DX009 (ip), vehicle: saline): 100 % of control
T/C (dose: 12.0 mg/kg/injection, schedule: Q01DX009 (ip), vehicle: saline): 105 % of control
T/C (dose: 24.0 mg/kg/injection, schedule: Q01DX009 (ip), vehicle: saline): 100 % of control

CCCCCCC(=O)/C=C/c1cccc(Cl)c1
T/C [11]: 88 % of control
T/C (dose: 400.0 mg/kg/injection, schedule: Q04DX003 (ip), vehicle: saline): 100 % of control

O=C(c1ccc(Cl)cc1)n1c(Cl)c(/C=N\Nc2cccc([N+](=O)[O-])c2)c2ccccc21
T/C (dose: 400.0 mg/kg/injection, schedule: Q01DX001 (ip), vehicle: Klucel (hydroxypropylcellulose) (HPC)): 89 % of control

CCN(CCNc1ccc(CO)c2sc3ccccc3c(=O)c12)CC(C)(C)O
T/C (dose: 50.0 mg/kg/injection, schedule: Q04DX003 (ip), vehicle: Klucel (hydroxypropylcellulose) (HPC)): 102 % of control
T/C [7]: 100 % of control
T/C [8]: 106 % of control

NC(N)=N/N=C/C(Cl)Cl
T/C [12]: 95 % of control and 100 % of control
T/C [13]: 104 % of control
T/C [14]: 100 % of control and 109 % of control

CCc1ccc(C(C)(C)C)cc1
T/C (dose: 50.0 mg/kg/injection, schedule: Q04DX003 (ip), vehicle: saline with Tween-80): 109 % of control
T/C [9]: 104 % of control
T/C (dose: 132.0 mg/kg/injection, schedule: Q01DX009 (ip), vehicle: saline with Tween-80): 118 % of control
T/C [10]: 100 % of control

COc1cc(/C=N\O)nc(-c2ccccn2)c1
T/C (dose: 12.5 mg/kg/injection, schedule: Q01DX009 (ip), vehicle: saline): 120 % of control
T/C [12]: 96 % of control and 120 % of control
T/C [13]: 111 % of control and 123 % of control
T/C [14]: 114 % of control

Cc1c(N)cccc1N
T/C [15]: 96 % of control
T/C [16]: 123 % of control

NNc1nncc2ccccc12
T/C [17]: 90 % of control
T/C [18]: 90 % of control
T/C [12]: 109 % of control
T/C (dose: 25.0 mg/kg/injection, schedule: Q04DX003 (ip), vehicle: saline): 113 % of control
T/C [13]: 90 % of control
T/C [11]: 100 % of control

OC(Cc1cc(CC(O)(C(F)(F)F)C(F)(F)F)ncn1)(C(F)(F)F)C(F)(F)F
T/C [19]: 95 % of control
T/C [20]: 90 % of control

CS/C(N)=N/N
T/C [17]: 95 % of control
T/C [18]: 108 % of control

CC1=C2C(=O)c3ccccc3C2=C(C)S(=O)(=O)O1
T/C (dose: 50.0 mg/kg/injection, schedule: Q01DX009 (ip), vehicle: carboxymethylcellulose (CMC)): 119 % of control
T/C (dose: 100.0 mg/kg/injection, schedule: Q01DX009 (ip), vehicle: carboxymethylcellulose (CMC)): 90 % of control
T/C [9]: 122 % of control

Oc1cc(CN2CCCC2)c(O)cc1CN1CCCC1
T/C [15]: 111 % of control
T/C [16]: 106 % of control
T/C [21]: 111 % of control
T/C [19]: 122 % of control

CC(=O)O/C(C#N)=C1\CCCC\C1=C(\C#N)OC(C)=O
T/C [22]: 103 % of control

CCOC(=O)CCC(NC(=O)Cc1ccc(NC(=O)C(F)(F)F)cc1)C(=O)OCC (stereo not given)
T/C [1]: 100 % of control
T/C [2]: 95 % of control
T/C [3]: 104 % of control

CCOC(=O)c1ccccc1OP(=O)(N(C)C)N(C)C
T/C [21]: 106 % of control
T/C [20]: 122 % of control

NC(=S)c1cncnc1N
T/C [9]: 91 % of control

COCc1ccc([N+](=O)[O-])cc1
T/C [22]: 101 % of control
T/C (dose: 50.0 mg/kg/injection, schedule: Q01DX001 (ip), vehicle: saline with Tween-80): 95 % of control
T/C (dose: 100.0 mg/kg/injection, schedule: Q01DX001 (ip), vehicle: saline with Tween-80): 96 % of control and 107 % of control

Cc1cccc(N2CCNCC2)c1
T/C (dose: 6.25 mg/kg/injection, schedule: Q04DX003 (ip), vehicle: saline sonified): 95 % of control
T/C (dose: 12.5 mg/kg/injection, schedule: Q04DX003 (ip), vehicle: saline sonified): 100 % of control
T/C (dose: 25.0 mg/kg/injection, schedule: Q04DX003 (ip), vehicle: saline sonified): 109 % of control

NC(=S)N/N=C/c1ccc(OC(=O)Cc2ccccc2)cn1
T/C [15]: 150 % of control

Nc1cc(=O)n(Cc2ccco2)c(=S)[nH]1
T/C [4]: 93 % of control
T/C [5]: 102 % of control
T/C [6]: 100 % of control
